Source: the supplement of paper PMC10307832

Legend:
Assay in all cases: relative viability (nuclei count vs DMSO), 5 days (fraction); higher = more cells survive
[1] = compound: CN(C)CC1=CC(=CC=C1)N=C(C2=CC=CC=C2)C3=C(NC4=C3C=CC(=C4)C(=O)N(C)C)O + CC(C)C[C@H](NC(=O)[C@H](Cc1ccccc1)NC(=O)c1cnccn1)B(O)O [Bortezomib] (partner 0.002 µM)
Procedure, shortened: (§1)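 Lung cancer cell lines in 1536-well plates were dosed by pin tool the day after seeding, either with one drug alone or with a fixed anchor-drug dose plus five library-drug doses (not always all listed) in √10 steps. After 5 days, cells were fixed and their nuclei stained in one step (final 0.05% Triton X-100, 1% formaldehyde, 1 ug/ml Hoechst), then counted on 4× images. Relative viability is the nuclei count in treated wells divided by that in vehicle wells. Values are medians of duplicate plates.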

[2] = compound: CN(C)CC1=CC(=CC=C1)N=C(C2=CC=CC=C2)C3=C(NC4=C3C=CC(=C4)C(=O)N(C)C)O + Cc1cc(Nc2cc(N3CCN(C)CC3)nc(Sc3ccc(NC(=O)C4CC4)cc3)n2)n[nH]1 [Tozasertib] (partner 0.1 µM)
Procedure, shortened: as §1

[3] = compound: CN(C)CC1=CC(=CC=C1)N=C(C2=CC=CC=C2)C3=C(NC4=C3C=CC(=C4)C(=O)N(C)C)O + NC(=O)Nc1cc(-c2cccc(F)c2)sc1C(=O)N[C@H]1CCCNC1 [AZD7762] (partner 0.2 µM)
Procedure, shortened: as §1

[4] = compound: CN(C)CC1=CC(=CC=C1)N=C(C2=CC=CC=C2)C3=C(NC4=C3C=CC(=C4)C(=O)N(C)C)O + Nc1ncn([C@H]2C[C@H](O)[C@@H](CO)O2)c(=O)n1 [Decitabine] (partner 2 µM)
Procedure, shortened: as §1

| Cell Line | relative viability ([1]; first compound 0.08 µM) | relative viability ([1]; first compound 0.253 µM) | relative viability ([1]; first compound 0.8 µM) | relative viability ([1]; first compound 2.53 µM) | relative viability ([1]; first compound 8 µM) | relative viability ([2]; first compound 0.08 µM) | relative viability ([2]; first compound 0.253 µM) | relative viability ([2]; first compound 0.8 µM) | relative viability ([2]; first compound 2.53 µM) | relative viability ([2]; first compound 8 µM) | relative viability ([3]; first compound 0.08 µM) | relative viability ([3]; first compound 0.253 µM) | relative viability ([3]; first compound 0.8 µM) | relative viability ([3]; first compound 2.53 µM) | relative viability ([3]; first compound 8 µM) | relative viability ([4]; first compound 0.08 µM) | relative viability ([4]; first compound 0.253 µM) | relative viability ([4]; first compound 0.8 µM) | relative viability ([4]; first compound 2.53 µM) | relative viability ([4]; first compound 8 µM) |
| --- | --- | --- | --- | --- | --- | --- | --- | --- | --- | --- | --- | --- | --- | --- | --- | --- | --- | --- | --- | --- |
| HCC-44 | 0.913 | 0.872 | 0.875 | 0.803 | 0.948 | 1.08 | 0.836 | 1.03 | 0.927 | 0.862 | 1 | 0.987 | 1.03 | 0.946 | 1.04 | 0.989 | 0.94 | 0.941 | 0.919 | 0.968 |
| LC-2-ad | 1.08 | 1.1 | 1.03 | 0.979 | 0.995 | 0.503 | 0.409 | 0.415 | 0.492 | 0.407 | 0.842 | 0.819 | 0.812 | 0.829 | 0.867 | 0.694 | 0.848 | 0.747 | 0.841 | 0.782 |
| NCI-H1755 | 0.888 | 0.932 | 0.93 | 0.817 | 0.972 | 0.531 | 0.479 | 0.642 | 0.594 | 0.615 | 0.374 | 0.383 | 0.481 | 0.452 | 0.411 | 0.674 | 0.706 | 0.63 | 0.689 | 0.719 |
| A-427 | 0.986 | 0.941 | 1.02 | 0.935 | 0.98 | 0.22 | 0.188 | 0.182 | 0.213 | 0.147 | 0.75 | 0.666 | 0.712 | 0.676 | 0.631 | 0.562 | 0.614 | 0.547 | 0.554 | 0.534 |
| NCI-H23 | 1.08 | 1.02 | 1.18 | 0.951 | 0.833 | 0.355 | 0.454 | 0.413 | 0.411 | 0.366 | – | 0.243 | 0.255 | 0.324 | 0.319 | – | 0.332 | 0.303 | 0.343 | 0.346 |
| EKVX | 1 | 1 | 1.01 | 0.962 | 1.06 | 0.445 | 0.387 | 0.459 | 0.378 | 0.323 | 0.745 | 0.727 | – | 0.726 | 0.696 | 0.41 | 0.321 | – | 0.36 | 0.34 |
| HCC-78 | 0.596 | 0.458 | 0.468 | 0.512 | 0.405 | 0.507 | 0.426 | 0.403 | 0.383 | 0.364 | 0.464 | 0.772 | 0.568 | 0.639 | 0.831 | 0.564 | 0.716 | 0.766 | 0.681 | 0.665 |
| NCI-H596 | 1.05 | 1.17 | 1.07 | 1.11 | 1.26 | 0.898 | 0.851 | 0.826 | 0.847 | 0.906 | 1.22 | 1.29 | 0.979 | 1.06 | 0.987 | 0.919 | 1.05 | 0.967 | 1.03 | 0.979 |
| NCI-H460 | 1.22 | 1.05 | 1.1 | 0.974 | 1.06 | 0.292 | 0.574 | 0.62 | 0.426 | 0.397 | 0.667 | 0.511 | 0.636 | – | 0.664 | 0.449 | 0.491 | 0.503 | 0.456 | 0.471 |
| EMC-BAC-2 | 1.09 | 1.08 | 1.09 | 1.05 | 1.01 | 0.297 | 0.283 | 0.383 | 0.258 | 0.267 | 1.23 | 1.15 | 1.27 | 1.06 | 1.16 | 1.15 | 0.996 | 0.992 | 0.817 | 1.01 |
| ABC-1 | 0.324 | 0.312 | 0.264 | 0.274 | 0.316 | 0.198 | 0.173 | 0.15 | 0.179 | 0.171 | 0.805 | 1.11 | 0.81 | 0.903 | 0.676 | 1.38 | 0.939 | 1.2 | 0.99 | 0.904 |
| NCI-H647 | 1.02 | 1.01 | 1.01 | 0.846 | 0.776 | 0.262 | 0.362 | 0.263 | 0.356 | 0.235 | 0.513 | 0.483 | 0.463 | 0.48 | 0.445 | 0.414 | 0.477 | 0.423 | 0.438 | 0.488 |
| H3255 | 0.779 | 0.893 | 0.752 | 0.822 | 0.94 | 0.528 | 0.575 | 0.65 | 0.71 | 0.484 | 1.08 | 0.85 | 0.842 | 0.967 | 0.942 | 0.599 | 0.605 | – | 0.586 | 0.593 |
| NCI-H1975 | 0.444 | 0.381 | 0.319 | 0.326 | 0.381 | 0.807 | 0.785 | 0.736 | 0.757 | 0.708 | 0.756 | 0.761 | 0.68 | 0.692 | 0.707 | 0.45 | 0.409 | 0.368 | 0.397 | 0.381 |
| NCI-H650 | 0.695 | 0.993 | 0.767 | 0.717 | 0.661 | 0.815 | 0.754 | 0.683 | 0.718 | 0.663 | 1.4 | 0.938 | 1.16 | 0.897 | 0.855 | 0.364 | 0.408 | 0.335 | 0.33 | 0.371 |
